Read-outs that look alike come from different tables or passages of the source.
Assays:
human M4 receptor = biological target: T1, human M4 receptor (Homo sapiens, UniProt P08173); assay: SPA GTP (GTPgS) binding curve shift assay, M4; type: biochemical
T1 construct: expressed in transfected cells
T1 sequence (P08173 1-479): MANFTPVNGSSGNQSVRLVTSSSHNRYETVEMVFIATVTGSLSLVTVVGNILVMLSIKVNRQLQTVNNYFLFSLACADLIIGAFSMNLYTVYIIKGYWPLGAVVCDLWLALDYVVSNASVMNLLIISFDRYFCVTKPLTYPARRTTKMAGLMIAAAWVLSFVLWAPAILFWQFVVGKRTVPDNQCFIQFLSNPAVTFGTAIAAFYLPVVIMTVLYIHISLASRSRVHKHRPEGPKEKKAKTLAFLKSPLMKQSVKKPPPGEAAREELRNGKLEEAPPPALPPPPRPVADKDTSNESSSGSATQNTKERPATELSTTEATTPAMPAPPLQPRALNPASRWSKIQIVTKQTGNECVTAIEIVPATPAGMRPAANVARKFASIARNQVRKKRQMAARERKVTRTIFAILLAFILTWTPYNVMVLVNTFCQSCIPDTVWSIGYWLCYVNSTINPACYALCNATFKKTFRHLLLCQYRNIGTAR
Experimental: (§1) Membranes were prepared for GTPgS binding assays from CHO-K1 cells stably expressing human M2 or human M4 receptors. Cells were grown in 5-layer cell culture flasks. Cells were washed with 50 mL of PBS and then dissociated with 0.05% trypsin. Dissociated cells were then collected by centrifugation at 650×g for 8 min at 4° C. Pellets were rewashed in PBS by centrifugation and resuspended in 30 mL of 20 mM HEPES, 10 mM EDTA, pH 7.4. After sitting on ice for 30 min, membranes were collected by centrifugation at 50000×g for 15 min at 4° C., resuspended in 30 mL of 20 mM HEPES, 0.1 mM EDTA, pH 7.4, and collected again by centrifugation. Pellets were then washed twice by centrifugation in 30 mL of 20 mM HEPES, pH 7.4, and stored at −80° C. until the day of the assay. On the day of the assay, pellets were thawed on ice and resuspended in 1 mL of 20 mM HEPES, pH 7.4, 10 mM MgCl2, and 100 mM NaCl using Dounce homogenization.
(§2) According to Promega guidelines, membrane protein concentration was determined by BCA protein assay (Promega, Madison, WI).
(§3) On the day of the assay, serial dilutions of test PAM compounds were brought up in assay buffer (20 mM HEPES, 10 mM MgCl2; see Table 4 for NaCl concentrations) at four times the final assay concentration. […] of membrane homogenates (containing […] of membrane protein) were prepared in assay buffer supplemented with GDP at 4× final assay concentration (see Table 4 for GDP concentrations) and dispensed into 96 well polypropylene, U-bottom Greiner plates. Membrane plates were incubated for 10 min at room temperature with gentle shaking. Then, 25 μL of test compounds were added to assay plates. Plates were then incubated, with shaking, for an additional 10-15 min. Then, 25 μL of diluted agonists serially diluted in assay buffer at 4× final assay concentration was added to assay plates. Plates were then incubated, with shaking, for an additional 10-15 min. Next, […] of 0.4 nM ^35S-GTP (Perkin Elmer, Waltham, MA) in assay buffer was added to assay mixtures. The binding reaction was left on the shaker for 1 h at room temperature. Membranes in assay reactions were then transferred to GF/C filter plates (UniFilter, Perkin Elmer) and washed three times using FilterMate Harvester (Perkin Elmer) with cold assay buffer containing no GDP. Filter plates were then dried at 40° C. overnight, and […] of Beta Plate Scintillation liquid was added. Plates were top and bottom sealed before being read on the TopCount scintillation counter (Perkin Elmer, Waltham, MA).
(§4) Raw data for all assays was transmitted directly from plate readers into the Beacon database for processing. All assay plates contained positive and negative control wells for data normalization and scaling. […] All control wells contained DMSO at a final assay concentration that matched the test compound wells.
(§5) For GTPgS assays, the negative control wells were defined as 0% response. The highest response in a plate was scaled to 1, representing 100% response. Data from test compound wells was scaled to these controls and are reported as % control values. This was done to allow for subsequent GraphPad cooperativity analysis, setting the maximal response at no more than 1.

human M2 receptor = biological target: T2, human M2 receptor (Homo sapiens, UniProt P08172); assay: SPA GTP (GTPgS) binding curve shift assay, M2; type: biochemical
T2 sequence (P08172 1-466): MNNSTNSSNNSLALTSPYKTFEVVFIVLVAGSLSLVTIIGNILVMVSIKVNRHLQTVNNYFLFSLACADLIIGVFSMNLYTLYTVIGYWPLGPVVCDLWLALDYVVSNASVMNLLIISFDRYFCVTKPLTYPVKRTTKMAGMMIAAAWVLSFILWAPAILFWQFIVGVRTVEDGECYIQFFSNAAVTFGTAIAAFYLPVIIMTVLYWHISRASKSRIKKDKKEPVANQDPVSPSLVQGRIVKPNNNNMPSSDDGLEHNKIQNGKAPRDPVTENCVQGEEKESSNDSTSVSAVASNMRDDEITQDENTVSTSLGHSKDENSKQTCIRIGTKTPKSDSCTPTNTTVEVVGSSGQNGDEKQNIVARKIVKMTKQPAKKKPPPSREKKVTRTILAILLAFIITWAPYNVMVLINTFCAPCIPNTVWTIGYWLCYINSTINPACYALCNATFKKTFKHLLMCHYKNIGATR
Experimental: as §1, §2, §3, §4, §5

[1] = 26-week study of Alzheimer's disease; cited from earlier work
[2] = Emraclidine concentration 41.2 nM, read-out: Emax
[3] = Emraclidine concentration 123 nM, read-out: Emax
[4] = Emraclidine concentration 370 nM
[5] = Emraclidine concentration 1110 nM, read-out: Emax
[6] = Emraclidine concentration 3330 nM, read-out: Emax
[7] = MK-4710 concentration 41.2 nM, read-out: Emax
[8] = MK-4710 concentration 123 nM, read-out: Emax
[9] = MK-4710 concentration 1110 nM, read-out: Emax
[10] = MK-4710 concentration 3330 nM, read-out: Emax
[11] = M2, Emraclidine concentration 0 nM
[12] = M2, Emraclidine concentration 41.2 nM, read-out: Emax
[13] = M2, Emraclidine concentration 123 nM, read-out: Emax
[14] = M2, Emraclidine concentration 370 nM
[15] = M2, Emraclidine concentration 1110 nM, read-out: Emax
[16] = M2, Emraclidine concentration 3330 nM, read-out: Emax
[17] = M2, Emraclidine concentration […]
[18] = M2, MK-4710 concentration 41.2 nM, read-out: Emax
[19] = M2, MK-4710 concentration 370 nM
[20] = M2, MK-4710 concentration 1110 nM, read-out: Emax
[21] = M2, MK-4710 concentration 3330 nM, read-out: Emax

Question: For CC1OC2(CS1)CN1CCC2CC1 (stereo not shown) [cevimeline, Cevimeline, reference compound], which EC50 (human M4 receptor; Emraclidine concentration 0 nM) is on record?
Answer: 1300 nM

Question: What about the Emax (human M4 receptor; Emraclidine concentration 0 nM) of the same compound?
Answer: 4.0%

Question: What about the Emax (human M4 receptor; [2]) of the same compound?
Answer: 13.2%

Question: And the Emax (human M4 receptor; [3])?
Answer: 28%

Question: What about the Emax at […] (human M4 receptor; [4]) of the same compound?
Answer: 49.2%

Question: What about the Emax (human M4 receptor; [5]) of the same compound?
Answer: 73.3%

Question: And the Emax (human M4 receptor; [6])?
Answer: 86.3%

Question: And the Emax at […] (human M4 receptor; Emraclidine concentration […])?
Answer: 10.6%

Question: What about the “α (cooperativity, affinity shift)” value (human M4 receptor; M4 PAM Emraclidine) of the same compound?
Answer: 1.0

Question: And the “β (cooperativity, efficacy shift)” value (human M4 receptor; M4 PAM Emraclidine)?
Answer: 57.2

Question: And the “τ (agonist pharmacology)” value (human M4 receptor; M4 PAM Emraclidine)?
Answer: 0.4

Question: What about the “α (cooperativity, affinity shift)” value (human M4 receptor; M4 PAM MK-4710) of the same compound?
Answer: 1.0

Question: What about the “β (cooperativity, efficacy shift)” value (human M4 receptor; M4 PAM MK-4710) of the same compound?
Answer: 136.5

Question: And the “τ (agonist pharmacology)” value (human M4 receptor; M4 PAM MK-4710)?
Answer: 0.1

Question: And the EC50 (human M4 receptor; MK-4710 concentration 0 nM)?
Answer: 3010 nM

Question: What about the Emax (human M4 receptor; MK-4710 concentration 0 nM) of the same compound?
Answer: 6.4%

Question: And the Emax (human M4 receptor; [7])?
Answer: 20.2%

Question: And the Emax (human M4 receptor; [8])?
Answer: 26.6%

Question: What about the Emax at […] (human M4 receptor; MK-4710 concentration 370 nM) of the same compound?
Answer: 42.1%

Question: What about the Emax (human M4 receptor; [9]) of the same compound?
Answer: 68.1%

Question: And the Emax (human M4 receptor; [10])?
Answer: 83.6%

Question: And the Emax at […] (human M4 receptor; MK-4710 concentration […])?
Answer: 14.4%

Question: What about the EC50 (human M2 receptor; [11]) of the same compound?
Answer: 2100 nM

Question: And the Emax (human M2 receptor; [11])?
Answer: 34.0%

Question: What about the Emax (human M2 receptor; [12]) of the same compound?
Answer: 57%

Question: What about the Emax (human M2 receptor; [13]) of the same compound?
Answer: 51.8%

Question: What about the Emax at […] (human M2 receptor; [14]) of the same compound?
Answer: 48.6%

Question: What about the Emax (human M2 receptor; [15]) of the same compound?
Answer: 51.4%

Question: What about the Emax (human M2 receptor; [16]) of the same compound?
Answer: 69.6%

Question: What about the Emax at […] (human M2 receptor; [17]) of the same compound?
Answer: 43.8%

Question: What about the “α (cooperativity, affinity shift)” value (human M2 receptor; M2, M4 PAM Emraclidine) of the same compound?
Answer: 1.0

Question: What about the “β (cooperativity, efficacy shift)” value (human M2 receptor; M2, M4 PAM Emraclidine) of the same compound?
Answer: 21.1

Question: What about the “τ (agonist pharmacology)” value (human M2 receptor; M2, M4 PAM Emraclidine) of the same compound?
Answer: 0.0

Question: And the “α (cooperativity, affinity shift)” value (human M2 receptor; M2, M4 PAM MK-4710)?
Answer: 1.0

Question: And the “β (cooperativity, efficacy shift)” value (human M2 receptor; M2, M4 PAM MK-4710)?
Answer: 53.4

Question: What about the “τ (agonist pharmacology)” value (human M2 receptor; M2, M4 PAM MK-4710) of the same compound?
Answer: 0.0

Question: What about the EC50 (human M2 receptor; M2, MK-4710 concentration 0 nM) of the same compound?
Answer: 2260 nM

Question: And the Emax (human M2 receptor; M2, MK-4710 concentration 0 nM)?
Answer: 39.6%

Question: What about the Emax (human M2 receptor; [18]) of the same compound?
Answer: 38.2%

Question: What about the Emax (human M2 receptor; M2, MK-4710 concentration 123 nM, read-out: Emax) of the same compound?
Answer: 39%

Question: What about the Emax at […] (human M2 receptor; [19]) of the same compound?
Answer: 39.3%

Question: And the Emax (human M2 receptor; [20])?
Answer: 49.5%

Question: What about the Emax (human M2 receptor; [21]) of the same compound?
Answer: 68.2%

Question: What about the Emax at […] (human M2 receptor; M2, MK-4710 concentration […]) of the same compound?
Answer: 42.1%

Question: Which results are given for CCCCCCOc1nsnc1C1=CCCN(C)C1 [xanomeline, reference compound]?
Answer: Emax (human M4 receptor; Emraclidine concentration 0 nM): 27.2%; Emax (human M4 receptor; [2]): 31.9%; Emax (human M4 receptor; [3]): 38.1%; Emax at […] (human M4 receptor; [4]): 60%; Emax (human M4 receptor; [5]): 78.7%; Emax (human M4 receptor; [6]): 89.4%; Emax at […] (human M4 receptor; Emraclidine concentration […]): 28.7%; τ (agonist pharmacology) (human M4 receptor; M4 PAM Emraclidine): 1.4; Emax (human M4 receptor; MK-4710 concentration 0 nM): 19.7%; Emax (human M4 receptor; [7]): 29.7%; Emax (human M4 receptor; [8]): 38.5%; Emax at […] (human M4 receptor; MK-4710 concentration 370 nM): 55%; Emax (human M4 receptor; [9]): 70.6%; Emax (human M4 receptor; [10]): 80.5%; Emax at […] (human M4 receptor; MK-4710 concentration […]): 25.1%; Emax (human M2 receptor): 74.7%; Emax (human M2 receptor; [11]): 36.2%; Emax (human M2 receptor; [12]): 48.2%; Emax (human M2 receptor; [13]): 49.8%; Emax at […] (human M2 receptor; [14]): 41.5%; Emax (human M2 receptor; [15]): 59.6%; Emax (human M2 receptor; [16]): 64.1%; Emax at […] (human M2 receptor; [17]): 41.7%; τ (agonist pharmacology) (human M2 receptor; M2, M4 PAM Emraclidine): 0.0; τ (agonist pharmacology) (human M2 receptor; M2, M4 PAM MK-4710): 0.0; Emax (human M2 receptor; M2, MK-4710 concentration 0 nM): 55.6%; Emax (human M2 receptor; [18]): 65.3%; Emax at […] (human M2 receptor; [19]): 55.5%; Emax (human M2 receptor; [20]): 74.1%; Emax (human M2 receptor; [21]): 75.7%; Emax at […] (human M2 receptor; M2, MK-4710 concentration […]): 60.1%; dropout rate [1]: 56%

Source: patent US20250228832A1, “METHODS FOR TREATING DISORDERS AMELIORATED BY MUSCARINIC RECEPTOR ACTIVATION” (KARUNA THERAPEUTICS, INC., priority 2022, published 2025)
